Experimental data taken from patent US20010025059A1, “Composition and method for treating non-bacterial prostatitis” (priority 2000, published 2001).

Key:
[1] = system: non-bacterial prostatitis; assay: Example II: double blind study, 30 patients without positive bacterial cultures localized to the prostatic fluid; type: in vivo, human
Description: A double blind study using 30 patients without positive bacterial cultures localized to the prostatic fluid were enrolled in a double blind study. Seventeen of the patients received a composition comprised of quercetin in amount of 500 milligrams, bromelain in an amount of 10 milligrams, and papain in an amount of 10 milligrams as the active ingredients thereof. After a randomized study was completed, an additional fifteen patients were treated in an open label study with […]. […] The mean symptom score improved from 21.0 to 13.1 in the group receiving quercetin, but from 20.2 to 18.8 in the placebo group. This represented an improvement of 35%. In those patients which received only the quercetin, without the papain and bromelain, with obtainable extra prostatic secretions, the white blood cell count in the prostatic fluid decreased from 16.8 to 5.3, versus a decrease from 13.1 to 8.3 in the placebo patients.

[2] = Tests of bioavailability / transmural intestinal absorption; type: in vivo; settings: quercetin alone; transmural intestinal absorption relatively low

bioavailability [2]: does not have a high bioavailability
SMILES: O=c1c(O)c(-c2ccc(O)c(O)c2)oc2cc(O)cc(O)c12 [quercetin]
mean symptom score, after treatment ([1]; end of study): 13.1
improvement of mean symptom score ([1]; human, in vivo): 35%
white blood cell count in the prostatic fluid, after treatment ([1]; patients with obtainable prostatic secretions, end of study): 5.3
white blood cell count in the prostatic fluid, before treatment ([1]; patients with obtainable prostatic secretions, starting value): 16.8
mean symptom score, before treatment ([1]; starting value of the group): 21.0
